Here are results for eight compounds from ChEMBL document CHEMBL2331247, “Anti-inflammatory norditerpenoids from the soft coral Sinularia maxima” (Bioorg Med Chem Lett, 2013).

Usually IC50 stands for the concentration that inhibits the measured activity by half.

What all share (assay type): functional
Assay [1] in a line: Antiinflammatory activity against in C57BL/6 mouse BMDC assessed as inhibition of LPS-stimulated IL12 production compound pre-incubated for 1 hr before LPS challenge by ELISA. (In general: In an ELISA, binding on a coated surface is turned into a signal by an enzyme label.)
Assay [2] is described as follows: Antiinflammatory activity against in C57BL/6 mouse BMDC assessed as inhibition of LPS-stimulated IL6 production compound pre-incubated for 1 hr before LPS challenge by ELISA.
Assay [3] in a line: Antiinflammatory activity against in C57BL/6 mouse BMDC assessed as inhibition of LPS-stimulated TNFalpha production compound pre-incubated for 1 hr before LPS challenge by ELISA.

SMILES strings stand for the structures.

Consider `C=C(C)[C@H]1CCC2=C[C@@H](C[C@@]3(C)CC(=O)[C@H](CC(=O)C1)O3)OC2=O`, for which the concentration for half-maximal inhibition (IC50) in assay [1], in assay [2] and in assay [3] was over 100 µM each time.

As to `C=C(C)[C@@H]1CC(=O)CC2=C(C1)[C@@H]1C(=O)O[C@@H]3CC(C)=C(C2=O)[C@H]13` [YONAROLIDE], the half-inhibitory concentration (IC50) in assay [1], in assay [2] and in assay [3] was over 100 µM throughout.

In the case of `C=C(C)[C@@H]1CC(=O)C[C@@H]2O[C@](C)(CC2=O)C[C@@H]2C=C(C(=O)O2)[C@H](OC)C1`, the half-maximal inhibitory concentration (IC50) in assay [1] is 5.3 µM; in assay [2], 13.1 µM; in assay [3] it was over 100 µM.

Turning to `C=C(C)[C@@H]1CC(=O)[C@H]2[C@H](C1)[C@@H]1C(=O)O[C@@H]3C[C@@]4(C)O[C@H]2C(=O)[C@@H]4[C@H]13` [INELEGANOLIDE], the half-maximal inhibitory concentration (IC50) in assay [1], in assay [2] and in assay [3] was over 100 µM throughout.

As for `C=C(C)[C@@H]1CC(=O)CC2=C(C1)[C@]1(O)C(=O)O[C@@H]3C[C@](C)(O)[C@H](C2=O)[C@@H]31`, the IC50 in assay [1], in assay [2] and in assay [3] was over 100 µM throughout.

For the compound `C=C(C)[C@H]1C/C=C(\C(=O)OC)CC(=O)C[C@@]2(C)CC(=O)[C@@H](CC(=O)C1)O2` [NORCEMBRENE 5], the IC50 in assay [1], in assay [2] and in assay [3] was over 100 µM in each case.

As for `C[S+]([O-])c1ccc(-c2nc(-c3ccc(F)cc3)c(-c3ccncc3)[nH]2)cc1` (centres undefined) [SB-203580], the concentration for half-maximal inhibition (IC50) in assay [1] came out at 5.67 µM; in assay [2], 3.56 µM; in assay [3] it was 7.37 µM.

In the case of `C=C(C)[C@@H]1CC(=O)CC2=C(C1)[C@@H]1C(=O)O[C@@H]3C[C@](C)(O)[C@H](C2=O)[C@H]13` [SCABROLIDE A], the IC50 in assay [1] is 23.5 µM; in assay [2], 69.9 µM; in assay [3] it was over 100 µM.
